Measurements: patent publication US10082509B2 (priority 2013, dated 2018)
Entries after “also recorded” stand apart in the source; their conditions may differ. Where two headings read alike, the source gives them in different places.

Legend:
Legionella pneumophila = assay type: cell-based; settings: for labelling / metabolic incorporation: L. pneumophila strains, laboratory in vitro conditions, FIG. 7; for membrane labelling: FIG. 4
[1] = system: L. gormanii, L. maceachernii, L. micdadei, L. anisa, L. feeli, L. jordanis, L. tucsonensis and L. bozemanii; assay type: cell-based, Legionella spp.
[2] = system: P. aeruginosa (ATCC 9027); assay type: cell-based, Pseudomonas aeruginosa
E. coli K12 (MG1655) = assay type: cell-based, Escherichia coli

Structure (SMILES) | labelling / metabolic incorporation (Legionella pneumophila) | membrane labelling (Legionella pneumophila; L. pneumophila strain of serogroup 7) | membrane fluorescence / metabolic incorporation of the azido chemical reporter into LPS (Legionella pneumophila; four L. pneumophila serogroup 1 strains (incl. Philadelphia, Paris, Lens), 4 mM, 12 hours, 37° C., FIG. 3) | membrane labelling (Legionella pneumophila; four L. pneumophila strains of serogroups 3, 4, 5, 6) | membrane fluorescence / metabolic incorporation [1] | labelling / metabolic incorporation [2] | labelling / metabolic incorporation (E. coli K12 (MG1655))
CC(=O)NC1C(O)OC(CN=[N+]=[N-])[C@@H](NC(C)=O)[C@@H]1OC(C)=O (some centres unmarked) | not incorporated; also recorded: No labelling was observed | – | – | – | – | – | –
CC(=O)N[C@H]1[C@H](O)[C@H](NC(C)=O)C(O)O[C@@H]1CN=[N+]=[N-] (some centres unmarked) | efficiently labelled | absence of labelling | highly distinctive fluorescence on their membrane | very bright membrane labelling | not incorporated; also recorded: no membrane fluorescence was observed | not incorporated; also recorded: failed to show any labelling | not incorporated; also recorded: failed to show any labelling
